Experimental data: patent US9688966B2, “Compositions comprising cellobiose dehydrogenase from Pycnoporus cinnabarinus and their use for the degradation of lignocellulosic biomass” (INSTITUT NATIONAL DE LA RECHERCHE AGRONOMIQUE, priority 2011, dated 2017)

Target: Pycnoporus cinnabarinus ss3 cellobiose dehydrogenase, recombinant (rCDH, C-terminal (His)6 tag, expressed in Pichia pastoris; GenBank HQ825322) (Trametes cinnabarina, UniProt F1DFN2)
Assay: Kinetic parameters of purified rCDH for electron acceptors (cellobiose oxidation, 30° C., pH 4.5)
Type: biochemical
Method: To measure enzyme activities in the P. cinnabarinus culture supernatant, each aliquot was centrifuged for 5 min at 3500 rpm and filtered through a 0.45 μm membrane (MILLIPORE, Bedford, Mass., USA). CDH activities were determined by monitoring the reduction of 0.2 mM 2,6-dichlorophenol indophenol (DCPIP) in 100 mM sodium acetate buffer (pH 5) containing 2 mM cellobiose and 4 mM of sodium fluoride (sodium fluoride was used as a laccase inhibitor). The decrease in absorption at 520 nm (ε=6800 M^−1·cm^−1) was monitored at 30° C. for 1 min. Alternatively, CDH activity was determined by monitoring the reduction of 50 μM cytochrome c (cyt c) in 100 mM sodium-acetate buffer (pH 5) containing 2 mM cellobiose. The decrease in absorption at 550 nm (ε=33,700 M^−1·cm^−1) was monitored at 30° C. for 1 min. Glucose oxidase was measured by using the D-gluconic acid/D-glucono-δ-lactone assay (MEGAZYME). Laccase activity was determined quantitatively by monitoring the oxidation of 5 mM ABTS (2,2′-azino-bis(3-ethylbenzthiazoline-6-sulfonic acid)) at 420 nm (extinction coefficient […] cm.^−1) in the presence of 50 mM NaK tartrate, pH 4.0. Lignin peroxidase activity was determined spectrophotometrically at 30° C. by the method of Tien and Kirk (1988, Methods Enzymol., vol. 161, pp: 238-249). Manganese peroxidase activity was determined spectrophotometrically at 30° C. by the method of Paszczynski et al. (1985, FEMS Microbiol. Lett. 29:37-41) using H2O2 and vanillylacetone as substrate. Enzyme activity was expressed in international units (IU). One unit of activity is defined as the quantity of enzyme that transforms 1 μmol of substrate in one minute.
The kinetic parameters (Vmax and Km) were determined for cellobiose oxidation measured at 30° C. in 50 mM citrate phosphate buffer pH 4.5 using DCPIP or cytochrome c. The concentration of cellobiose ranged from 10 to 700 μM with both electron acceptors (DCPIP and cytochrome c). Triplicates were run to ensure reliable kinetic parameter determination.
Graphpad prism v.4 (Graphpad Software) was used for the nonlinear regression calculation and kinetic parameter determination.

[1] = electron acceptor DCPIP, cellobiose as electron donor, 30° C., pH 4.5, apparent

Chain of Pycnoporus cinnabarinus ss3 cellobiose dehydrogenase, recombinant (rCDH, C-terminal (His)6 tag, expressed in Pichia pastoris; GenBank HQ825322) (F1DFN2 1-750): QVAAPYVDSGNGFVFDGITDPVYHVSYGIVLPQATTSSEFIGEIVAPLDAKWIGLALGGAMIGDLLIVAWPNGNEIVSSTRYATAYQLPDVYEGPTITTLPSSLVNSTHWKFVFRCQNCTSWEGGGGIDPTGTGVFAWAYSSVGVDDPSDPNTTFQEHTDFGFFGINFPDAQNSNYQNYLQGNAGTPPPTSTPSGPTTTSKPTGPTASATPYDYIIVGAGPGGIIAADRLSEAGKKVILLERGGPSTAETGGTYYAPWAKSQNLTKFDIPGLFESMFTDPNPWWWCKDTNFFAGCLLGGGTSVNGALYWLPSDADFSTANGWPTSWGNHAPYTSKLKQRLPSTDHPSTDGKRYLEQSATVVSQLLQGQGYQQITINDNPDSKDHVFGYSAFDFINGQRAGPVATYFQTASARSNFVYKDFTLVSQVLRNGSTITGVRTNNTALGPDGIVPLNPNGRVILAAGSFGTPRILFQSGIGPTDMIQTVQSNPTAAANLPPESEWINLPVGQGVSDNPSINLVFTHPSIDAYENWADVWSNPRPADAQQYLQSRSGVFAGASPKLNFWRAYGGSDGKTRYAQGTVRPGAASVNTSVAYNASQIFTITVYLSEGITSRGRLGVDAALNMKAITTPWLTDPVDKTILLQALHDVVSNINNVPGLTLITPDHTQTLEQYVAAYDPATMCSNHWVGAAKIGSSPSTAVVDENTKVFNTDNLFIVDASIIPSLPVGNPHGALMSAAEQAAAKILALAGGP

## O=C1C(Cl)=CC(=Nc2ccc(O)cc2)C=C1Cl [DCPIP, 2,6-dichlorophenol indophenol]
DCPIP, on cellobiose oxidation
  Vmax: 22.2 U·mg^−1
[1]
  Vmax: 22.2 µmol/min/mg
  kcat: 40.8 s⁻¹
  kcat/KM: 1.148e+06 M⁻¹ s⁻¹
